Activity calls are given as the source filed them. No cut-off for these calls is given here.
Experiments:
[1] = test system: RG2; assay: Synergistic cytotoxicity against rat RG2 cells assessed as combination index at 89.9 uM after 48 hrs in presence of 515.1 uM TMZ by MTT assay; format: functional
[2] = test system: RG2; assay: Induction of apoptosis in rat RG2 cells assessed as Bcl2 expression at 112.4 uM after 48 hrs in presence of TMZ by Western blot analysis (reference value: 1); format: functional
[3] = test system: DBTRG-05MG; assay: Synergistic cytotoxicity against human DBTRG-05MG cells assessed as synergistic effect index at 89.9 uM after 48 hrs in presence of 206 uM TMZ by MTT assay; format: functional
[4] = test system: DBTRG-05MG; assay: Potentiation of TMZ-induced antitumor activity against human DBTRG-05MG cells xenografted in BALB/c nude mouse assessed as increase DNA damage at 75 mg/kg, sc co-treated with TMZ for 18 days by p.H2A.X staining based fluorescent immunocytochemistry method; format: functional, organism-based; details: time 18.0 day
[5] = test system: RG2; assay: Induction of apoptosis in rat RG2 cells assessed as cleaved caspace-9 expression at 112.4 uM after 48 hrs by Western blot analysis (reference value: 1); format: functional
[6] = Effect on ERK expression in rat RG2 cells at 112.4uM after 48 hrs in presence of TMZ by Western blot analysis (reference value: 1); format: functional
[7] = test system: DBTRG-05MG; assay: Induction of cell cycle arrest in human DBTRG-05MG cells assessed as p21 expression at 112.4 uM after 48 hrs in presence of TMZ by Western blot analysis (reference value: 1); format: functional
[8] = test system: DBTRG-05MG; assay: Synergistic cytotoxicity against human DBTRG-05MG cells assessed as combination index at 89.9 uM after 48 hrs in presence of 206 uM TMZ by MTT assay; format: functional
[9] = test system: DBTRG-05MG; assay: Induction of cell cycle arrest in human DBTRG-05MG cells assessed as accumulation at G0/G1 phase at 112.4 uM after 6 hrs in presence of TMZ by propidium iodide staining based flow cytometric analysis (reference value: 47.16 +/- 1.55%); format: functional
[10] = Effect on p38 expression in rat RG2 cells at 112.4uM after 48 hrs by Western blot analysis (reference value: 1); format: functional
[11] = Effect on AKT expression in human DBTRG-05MG cells at 112.4uM after 48 hrs by Western blot analysis (reference value: 1); format: functional
[12] = Synergistic cytotoxicity against rat CTX TNA2 cells assessed as combination index at 134.9 uM after 48 hrs in presence of 309 uM TMZ by MTT assay; format: cell-based; details: ctx tna2, 48 h
[13] = test system: DBTRG-05MG; assay: Synergistic cytotoxicity against human DBTRG-05MG cells assessed as synergistic effect index at 112.4 uM after 48 hrs in presence of 412.1 uM TMZ by MTT assay; format: functional
[14] = test system: DBTRG-05MG; assay: Synergistic cytotoxicity against human DBTRG-05MG cells assessed as synergistic effect index at 112.4 uM after 48 hrs in presence of 103 uM TMZ by MTT assay; format: functional
[15] = test system: DBTRG-05MG; assay: Synergistic cytotoxicity against human DBTRG-05MG cells assessed as combination index at 134.9 uM after 48 hrs in presence of 309 uM TMZ by MTT assay; format: functional
[16] = test system: DBTRG-05MG; assay: Induction of apoptosis in human DBTRG-05MG cells assessed as phosphorylated caspace-3 expression at 206 uM after 48 hrs by Western blot analysis (reference value: 1); format: functional
[17] = test system: DBTRG-05MG; assay: Induction of apoptosis in human DBTRG-05MG cells assessed as increase in apoptotic body formation at 206 uM after 48 hrs by TUNEL assay; format: functional, cell-based

Compound: C[C@@H]1CC[C@H]2C(C)(C)[C@H]3C[C@@]12CC[C@@]3(C)O [CEDROL]
- CI [1]: 1.38
- fold change (FC) [2]: 0.9
- Activity_index [3]: 0.72
- Activity [4]: Active
- fold change (FC) [5]: 1.3
- fold change (FC) [6]: 0.7
- fold change (FC) [7]: 2.7
- CI [8]: 0.74
- Activity [9]: 49.17%
- fold change (FC) [10]: 0.8
- fold change (FC) [11]: 0.9
- CI [12]: 1.13
- Activity_index [13]: 0.86
- Activity_index [14]: 0.84
- CI [15]: 0.61

Compound: Cn1nnc2c(C(N)=O)ncn2c1=O [TEMOZOLOMIDE]
- fold change (FC) [16]: 1.3
- Activity [17]: Active

Reference: ChEMBL document CHEMBL4699511, “Cedrol, a Sesquiterpene Alcohol, Enhances the Anticancer Efficacy of Temozolomide in Attenuating Drug Resistance via Regulation of the DNA Damage Response and MGMT Expression” (J Nat Prod, 2020)
